26 molecules from patent US9416141B2 (University of Washington through its Center for …, priority 2012, dated 2016) can be followed below.

The test system of this assay is hair cells. The experiment in a line: Hair cell toxicity assay in zebrafish (neomycin-induced hair cell death, DASPEI staining of neuromasts). Format: in vivo. As to conditions: Danio rerio; for Emax at 25 µM: maximum observed @ 25 μM test compound; for EC50: zebrafish larvae 5-7 dpf, 1 h pre-treatment, then 200 micromolar neomycin + test compound 30 min, read-out: HC50 (concentration that would produce 50% hair cell survival); for Emax at 2.8 µM: maximum observed @ 2.8 μM test compound; for Emax at 8.3 µM: maximum observed @ 8.3 μM test compound. In a few lines:
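Hair cell survival, as % of untreated controls, came from DASPEI scoring (0-2 each, ten neuromasts on one side) in 5-7 dpf larvae. These had 1 h compound pre-exposure (0.010-25 μM), then 200 μM neomycin with compound for 30 min. HCmax is peak protection; HC50 interpolated between flanking concentrations only when ≥50% survive.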

[1] abbreviates: 200 micromolar neomycin, read-out: Max HC Protection (HCmax, % hair cell survival).

Counter-ions that a name gives are not always drawn. Some results are limits rather than exact numbers.

As to `C[N+]1(CCC(N)=O)CCc2c(sc(NC(=O)Nc3ccc(Cl)cc3)c2C(N)=O)C1` (centres unmarked) [Example 157, 6-(3-Amino-3-oxopropyl)-3-carbamoyl-2-[3-(4-chlorophenyl)ureido]-6-methyl-4,5,6,7-tetrahydrothieno[2,3-c]pyridin-6-ium iodide], the EC50 fell in the range of 1000 to 10000 nM. Moreover, the Emax at 25 µM under setting [1] was determined as 94%. Turning to `COC(=O)CCC[N+]1(C)CCc2c(sc(NC(=O)Nc3ccc(Cl)cc3)c2C(N)=O)C1` (centres unmarked) [Example 158, 3-Carbamoyl-2-[3-(4-chlorophenyl)ureido]-6-(4-methoxy-4-oxobutyl)-6-methyl-4,5,6,7-tetrahydrothieno[2,3-c]pyridin-6-ium iodide], the EC50 is 1000 to 10000 nM. Moreover, the Emax at 25 µM under setting [1] turned out to be 80%. On to `CC(C)OC(=O)CC[N+]1(C)CCc2c(sc(NC(=O)Nc3ccc(Cl)cc3)c2C(N)=O)C1` (centres unmarked) [Example 159, 3-Carbamoyl-2-[3-(4-chlorophenyl)ureido]-6-(3-isopropoxy-3-oxopropyl)-6-methyl-4,5,6,7-tetrahydrothieno[2,3-c]pyridin-6-ium iodide], for which the EC50 was under 1000 nM. Under setting [1], the Emax at 2.8 µM was 84%.

Take `CCOC(=O)CC[N+]1(C)CCc2c(sc(NC(=O)Nc3ccc(Cl)cc3)c2C(N)=O)C1` (centres unmarked) [Example 160, 3-Carbamoyl-2-[3-(4-chlorophenyl)ureido]-6-(3-ethoxy-3-oxopropyl)-6-methyl-4,5,6,7-tetrahydrothieno[2,3-c]pyridin-6-ium chloride iodide]: the EC50 was 1000 to 10000 nM. The Emax at 2.8 µM under setting [1] stood at 70%. On to `CCOC(=O)CCC[N+]1(C)CCc2c(sc(NC(=O)Nc3ccc(Cl)cc3)c2C(N)=O)C1` (centres unmarked) [Example 161, 3-Carbamoyl-2-[3-(4-chlorophenyl)ureido]-6-(4-ethoxy-4-oxobutyl)-6-methyl-4,5,6,7-tetrahydrothieno[2,3-c]pyridin-6-ium iodide], for which the EC50 is under 1000 nM. The Emax at 2.8 µM under setting [1] was 87%. Turning to `C[N+]1(C)CCc2c(sc(NC(=O)Nc3ccc(Cl)cc3)c2C(N)=O)C1` [Example 162, 3-Carbamoyl-2-[3-(4-chlorophenyl)ureido]-6,6-dimethyl-4,5,6,7-tetrahydrothieno[2,3-c]pyridin-6-ium trifluoroacetate], the Emax at 2.8 µM under setting [1] is 36%. `CC(C)(C)OC(=O)C1CC([N+]2(C)CCc3c(sc(NC(=O)Nc4ccc(Cl)cc4)c3C(N)=O)C2)C1` (centres unmarked) [Example 163, 6-[3-(tert-Butoxycarbonyl)cyclobutyl]-3-carbamoyl-2-[3-(4-chlorophenyl)ureido]-6-methyl-4,5,6,7-tetrahydrothieno[2,3-c]pyridin-6-ium iodide]: the EC50 was under 1000 nM. The Emax at 8.3 µM under setting [1] came out at 88%. Turning to `CC(C)NC(=O)CC[N+]1(C)CCc2c(sc(NC(=O)Nc3ccc(Cl)cc3)c2C(N)=O)C1` (centres unmarked) [Example 164, 3-Carbamoyl-2-[3-(4-chlorophenyl)ureido]-6-[3-(isopropylamino)-3-oxopropyl]-6-methyl-4,5,6,7-tetrahydrothieno[2,3-c]pyridin-6-ium trifluoroacetate], the EC50 was in the range of 1000 to 10000 nM. For the same molecule, the Emax at 2.8 µM under setting [1] was found to be 60%.

For `CN(C)C(=O)CCC[N+]1(C)CCc2c(sc(NC(=O)Nc3ccc(Cl)cc3)c2C(N)=O)C1` (centres unmarked) [Example 165, 3-Carbamoyl-2-[3-(4-chlorophenyl)ureido]-6-[4-(dimethylamino)-4-oxobutyl]-6-methyl-4,5,6,7-tetrahydrothieno[2,3-c]pyridin-6-ium trifluoroacetate], the EC50 was in the range of 1000 to 10000 nM. Further, the Emax at 2.8 µM under setting [1] was 52%. With `CC(C)NC(=O)CCC[N+]1(C)CCc2c(sc(NC(=O)Nc3ccc(Cl)cc3)c2C(N)=O)C1` (centres unmarked) [Example 166, 3-Carbamoyl-2-[3-(4-chlorophenyl)ureido]-6-[4-(isopropylamino)-4-oxobutyl]-6-methyl-4,5,6,7-tetrahydrothieno[2,3-c]pyridin-6-ium trifluoroacetate], the EC50 fell in the range of 1000 to 10000 nM. For the same molecule, the Emax at 2.8 µM under setting [1] was 63%. Regarding `C[N+]1(CCCC(N)=O)CCc2c(sc(NC(=O)Nc3ccc(Cl)cc3)c2C(N)=O)C1` (centres unmarked) [Example 167, 6-(4-Amino-4-oxobutyl)-3-carbamoyl-2-[3-(4-chlorophenyl)ureido]-6-methyl-4,5,6,7-tetrahydrothieno[2,3-c]pyridin-6-ium trifluoroacetate], under setting [1], the Emax at 2.8 µM was determined as 21%. Consider `CC[N+]1(C)CCc2c(sc(NC(=O)Nc3ccc(C(=O)c4ccccc4)cc3)c2C(N)=O)C1` (centres unmarked) [Example 168, 2-[3-(4-Benzoylphenyl)ureido]-3-carbamoyl-6-ethyl-6-methyl-4,5,6,7-tetrahydrothieno[2,3-c]pyridin-6-ium iodide], for which the Emax at 2.8 µM under setting [1] was determined as 20%. `C[N+](C)(C)C1CCc2c(sc(NC(=O)Nc3ccc(Cl)cc3)c2C(N)=O)C1` (centres unmarked) [Example 169, 3-Carbamoyl-2-[3-(4-chlorophenyl)ureido]-N,N,N-trimethyl-4,5,6,7-tetrahydrobenzo[b]thiophen-6-aminium iodide]: the EC50 was 1000 to 10000 nM. Under setting [1], the Emax at 25 µM amounted to 101%. Consider `C[N+]1(C2CCc3c(sc(NC(=O)Nc4ccc(Cl)cc4)c3C(N)=O)C2)CCC1` (centres unmarked) [Example 170, 1-{3-Carbamoyl-2-[3-(4-chlorophenyl)ureido]-4,5,6,7-tetrahydrobenzo[b]thiophen-6-yl}-1-methylazetidin-1-ium iodide], for which the EC50 lay in the range of 1000 to 10000 nM. Further, the Emax at 25 µM under setting [1] stood at 85%. For `CC(C)(C)C[N+]1(C)CCc2c(sc(NC(=O)Nc3ccc(Cl)cc3)c2C(N)=O)C1` (centres unmarked) [Example 171, 3-Carbamoyl-2-[3-(4-chlorophenyl)ureido]-6-methyl-6-neopentyl-4,5,6,7-tetrahydrothieno[2,3-c]pyridin-6-ium iodide], the EC50 was under 1000 nM. In addition, the Emax at 2.8 µM under setting [1] was determined as 92%.

For `CC[N+]1(C)CCc2c(ccc(NC(=O)Nc3ccc(Cl)cc3)c2C(N)=O)C1` (centres unmarked) [Example 172, 5-Carbamoyl-6-[3-(4-chlorophenyl)ureido]-2-ethyl-2-methyl-1,2,3,4-tetrahydroisoquinolin-2-ium iodide], the EC50 was over 10000 nM. Also, under setting [1], the Emax at 25 µM worked out at 66%. Taken in the same sequence, the figures for `CC[N+]1(C)CCCc2c(sc(NC(=O)Nc3ccc(Cl)cc3)c2C(N)=O)C1` (centres unmarked) [Example 173, 3-Carbamoyl-2-[3-(4-chlorophenyl)ureido]-7-ethyl-7-methyl-5,6,7,8-tetrahydro-4H-thieno[2,3-c]azepin-7-ium iodide] were 1000 to 10000 nM and 102%.

For the molecule `CC[N+]1(C)CCc2sc(NC(=O)Nc3ccc(Cl)cc3)c(C(N)=O)c2CC1` (centres unmarked) [Example 174, 3-Carbamoyl-2-[3-(4-chlorophenyl)ureido]-6-ethyl-6-methyl-5,6,7,8-tetrahydro-4H-thieno[2,3-d]azepin-6-ium iodide], the EC50 fell in the range of 1000 to 10000 nM. Besides, the Emax at 25 µM under setting [1] worked out at 74%. `CC(C)C[N+]1(C)CCc2c(sc(NC(=O)Nc3ccc4ccccc4c3)c2C(N)=O)C1` (centres unmarked) [Example 175, 3-Carbamoyl-6-isobutyl-6-methyl-2-[3-(naphthalen-2-yl)ureido]-4,5,6,7-tetrahydrothieno[2,3-c]pyridin-6-ium iodide]: the EC50 was under 1000 nM. The Emax at 25 µM under setting [1] stood at 111%.

As for `C[N+]1(CC2CCC2)CCc2c(sc(NC(=O)Nc3ccc4ccccc4c3)c2C(N)=O)C1` (centres unmarked) [Example 176, 3-Carbamoyl-6-(cyclobutylmethyl)-6-methyl-2-[3-(naphthalen-2-yl)ureido]-4,5,6,7-tetrahydrothieno[2,3-c]pyridin-6-ium iodide], the EC50 is under 1000 nM. Besides, under setting [1], the Emax at 8.3 µM was 100%. Consider `CC[N+]1(C)CCc2c(sc(NC(=O)Nc3ccc(Cl)cc3)c2C(=O)N2CCOCC2)C1` (centres unmarked) [Example 179, 2-[3-(4-Chlorophenyl)ureido]-6-ethyl-6-methyl-3-(morpholine-4-carbonyl)-4,5,6,7-tetrahydrothieno[2,3-c]pyridin-6-ium chloride], for which the Emax at 8.3 µM under setting [1] is 38%. With `CC[N+]1(C)CCc2c(sc(NC(=O)Nc3ccc4cc(F)ccc4c3)c2C(N)=O)C1` (centres unmarked) [Example 180, 3-Carbamoyl-6-ethyl-2-[3-(6-fluoronaphthalen-2-yl)ureido]-6-methyl-4,5,6,7-tetrahydrothieno[2,3-c]pyridin-6-ium iodide], the EC50 fell in the range of 1000 to 10000 nM. In addition, under setting [1], the Emax at 25 µM came out at 102%. Take `CC(C)C[N+]1(C)CCc2c(sc(NC(=O)Nc3ccc(Cl)c4ccccc34)c2C(N)=O)C1` (centres unmarked) [Example 181, 3-Carbamoyl-2-[3-(4-chloronaphthalen-1-yl)ureido]-6-isobutyl-6-methyl-4,5,6,7-tetrahydrothieno[2,3-c]pyridin-6-ium iodide]: the EC50 is 1000 to 10000 nM. Moreover, the Emax at 25 µM under setting [1] stood at 93%. Regarding `C[N+]1(CC2CCC2)CCc2c(sc(NC(=O)Nc3ccc(Cl)c4ccccc34)c2C(N)=O)C1` (centres unmarked) [Example 182, 3-Carbamoyl-2-[3-(4-chloronaphthalen-1-yl)ureido]-6-(cyclobutylmethyl)-6-methyl-4,5,6,7-tetrahydrothieno[2,3-c]pyridin-6-ium chloride], the EC50 was 1000 to 10000 nM. Moreover, the Emax at 83 µM (maximum observed @ 83 μM test compound, 200 micromolar neomycin, read-out: Max HC Protection (HCmax, % hair cell survival)) was 76%.

As to `CC(C)(C)C[N+]1(C)CCc2c(sc(NC(=O)Nc3ccc(Cl)c4ccccc34)c2C(N)=O)C1` (centres unmarked) [Example 183, 3-Carbamoyl-2-[3-(4-chloronaphthalen-1-yl)ureido]-6-methyl-6-neopentyl-4,5,6,7-tetrahydrothieno[2,3-c]pyridin-6-ium chloride], the EC50 lay in the range of 1000 to 10000 nM. Further, the Emax at 8.3 µM under setting [1] stood at 70%. As to `CC[N+]1(C)CCc2c(sc(NC(N)=O)c2C(N)=O)C1` (centres unmarked) [Example 184, 3-Carbamoyl-6-ethyl-6-methyl-2-ureido-4,5,6,7-tetrahydrothieno[2,3-c]pyridin-6-ium iodide], under setting [1], the Emax at 25 µM was 30%.
